Results: patent US10780090B2, “Heteroaryl compounds useful as inhibitors of SUMO activating enzyme” (Millennium Pharmaceuticals, Inc., priority 2014, dated 2020)

Target: recombinant human SAE enzyme (Homo sapiens (Human), UniProt Q9UBT2)
Assay: SAE HTRF enzyme assay
Assay type: biochemical
Settings: for inhibition at 0.111 µM: read-out: Percent Inhibition
In short: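 HTRF read-out using Eu-cryptate anti-Flag and allophycocyanin anti-GST antibodies, added with EDTA stop buffer and read after 2 h at 24 °C. The preceding reaction ran 105 min at 24 °C: 0.11 nM recombinant SAE, 0.5 μM ATP, Sumo-Flag, Ubc9-GST, pH 7.5. Values given as single-concentration inhibition or IC50.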

[1] = SAE inhibition at compound concentration 0.111 μM
[2] = SAE inhibition, class symbols, legend in nM

recombinant human SAE enzyme, sequence (Q9UBT2 whole entry): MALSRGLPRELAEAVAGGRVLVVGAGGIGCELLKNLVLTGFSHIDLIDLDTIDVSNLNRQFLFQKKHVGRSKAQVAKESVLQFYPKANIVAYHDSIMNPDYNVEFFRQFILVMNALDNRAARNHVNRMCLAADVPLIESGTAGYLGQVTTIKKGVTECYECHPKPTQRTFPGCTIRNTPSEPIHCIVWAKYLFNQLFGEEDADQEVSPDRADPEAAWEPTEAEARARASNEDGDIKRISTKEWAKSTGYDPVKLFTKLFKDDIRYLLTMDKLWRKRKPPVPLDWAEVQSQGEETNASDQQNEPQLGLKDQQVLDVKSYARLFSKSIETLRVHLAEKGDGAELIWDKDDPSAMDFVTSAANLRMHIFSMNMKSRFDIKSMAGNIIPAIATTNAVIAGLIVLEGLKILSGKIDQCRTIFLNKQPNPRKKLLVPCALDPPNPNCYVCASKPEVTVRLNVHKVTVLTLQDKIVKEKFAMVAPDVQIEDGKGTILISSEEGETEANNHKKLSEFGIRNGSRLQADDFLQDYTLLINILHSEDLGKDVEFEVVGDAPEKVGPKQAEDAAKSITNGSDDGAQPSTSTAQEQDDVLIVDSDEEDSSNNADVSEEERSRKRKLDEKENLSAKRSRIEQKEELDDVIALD
recombinant human SAE enzyme, sequence (Q9UBE0 whole entry partner): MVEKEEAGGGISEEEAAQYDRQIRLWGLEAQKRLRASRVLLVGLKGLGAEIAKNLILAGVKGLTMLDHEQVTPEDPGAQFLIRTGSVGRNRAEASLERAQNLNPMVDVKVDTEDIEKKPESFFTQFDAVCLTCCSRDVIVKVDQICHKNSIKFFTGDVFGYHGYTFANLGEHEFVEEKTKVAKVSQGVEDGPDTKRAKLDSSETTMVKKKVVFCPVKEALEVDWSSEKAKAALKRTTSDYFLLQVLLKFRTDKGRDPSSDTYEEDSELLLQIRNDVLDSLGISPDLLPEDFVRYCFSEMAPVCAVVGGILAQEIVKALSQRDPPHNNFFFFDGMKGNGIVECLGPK

| SMILES | Percent Inhibition (Concentration 0.111 μM) | IC50 (class symbols A/B/C) | inhibition at 0.111 µM (Concentration 0.111 μM) | Percent Inhibition [1] | IC50 [2] |
| --- | --- | --- | --- | --- | --- |
| C[C@@](O)(c1cccc(Br)c1)c1csc(C(=O)c2cncnc2N[C@@H]2C[C@H](COS(N)(=O)=O)[C@@H](O)C2)c1.C[C@](O)(c1cccc(Br)c1)c1csc(C(=O)c2cncnc2N[C@@H]2C[C@H](COS(N)(=O)=O)[C@@H](O)C2)c1 (mixture of isomers) [I-3, [(1R,2S,4R)-4-{[5-({4-[(1S)-1-(3-Bromophenyl)-1-hydroxyethyl]-2-thienyl}carbonyl)pyrimidin-4-yl]amino}-2-hydroxycyclopentyl]methyl sulfamate and [(1R,2S,4R)-4-{[5-({4-[(1R)-1-(3-Bromophenyl)-1-hydroxyethyl]-2-thienyl}carbonyl)pyrimidin-4-yl]amino}-2-hydroxycyclopentyl]methyl sulfamate] | 100 | < 10 nM |  |  |  |
| NS(=O)(=O)OC[C@H]1C[C@@H](Nc2ncncc2C(=O)c2cc([C@H](O)c3cc(Cl)ccc3Cl)c(Cl)s2)C[C@@H]1O (mixture of isomers) [I-149, [(1R,2S,4R)-4-{[5-({5-chloro-4-[(R)-(2,5-dichlorophenyl)(hydroxy)methyl]-2-thienyl}carbonyl)pyrimidin-4-yl]amino}-2-hydroxycyclopentyl]methyl sulfamate and [(1R,2S,4R)-4-{[5-({5-chloro-4-[(S)-(2,5-dichlorophenyl)(hydroxy)methyl]-2-thienyl}carbonyl)pyrimidin-4-yl]amino}-2-hydroxycyclopentyl]methyl sulfamate] | 97 | < 10 nM |  |  |  |
| C[C@](O)(c1cccc(Cl)c1)c1coc(C(=O)c2cncnc2N[C@@H]2C[C@H](COS(N)(=O)=O)[C@@H](O)C2)c1 (single isomer, unassigned) [I-30b, {(1R,2S,4R)-4-[(5-{4-[(1S)-1-(3-chlorophenyl)-1-hydroxyethyl]-2-furoyl}pyrimidin-4-yl)amino]-2-hydroxycyclopentyl}methyl sulfamate or {(1R,2S,4R)-4-[(5-{4-[(1R)-1-(3-chlorophenyl)-1-hydroxyethyl]-2-furoyl}pyrimidin-4-yl)amino]-2-hydroxycyclopentyl}methyl sulfamate] | 88 | 10 to 100 nM |  |  |  |
| COCc1sc(C(=O)c2cncnc2N[C@@H]2C[C@H](COS(N)(=O)=O)[C@@H](O)C2)cc1C(O)c1cccc(Cl)c1 (single isomer, unassigned) [I-7b, [(1R,2S,4R)-4-{[5-({4-[(R)-(3-chlorophenyl)(hydroxy)methyl]-5-(methoxymethyl)-2-thienyl}carbonyl)pyrimidin-4-yl]amino}-2-hydroxycyclopentyl]methyl sulfamate or [(1R,2S,4R)-4-{[5-({4-[(S)-(3-chlorophenyl)(hydroxy)methyl]-5-(methoxymethyl)-2-thienyl}carbonyl)pyrimidin-4-yl]amino}-2-hydroxycyclopentyl]methyl sulfamate] | 98 | < 10 nM |  |  |  |
| NS(=O)(=O)OC[C@H]1C[C@@H](Nc2ncncc2C(=O)c2cc(Cn3cc(C(F)(F)F)cn3)cs2)C[C@@H]1O [I-130, [(1R,2S,4R)-2-hydroxy-4-({5-[(4-{[4-(trifluoromethyl)-1H-pyrazol-1-yl]methyl}-2-thienyl)carbonyl]pyrimidin-4-yl}amino)cyclopentyl]methyl sulfamate] |  | < 10 nM | 97% |  |  |
| NS(=O)(=O)OC[C@H]1C[C@@H](Nc2ncncc2C(=O)c2cc(Cn3ccc4ccc(Cl)cc43)cs2)C[C@@H]1O [I-125, [(1R,2S,4R)-4-{[5-({4-[(6-chloro-1H-indol-1-yl)methyl]-2-thienyl}carbonyl)pyrimidin-4-yl]amino}-2-hydroxycyclopentyl]methyl sulfamate] |  | < 10 nM | 97% |  |  |
| NS(=O)(=O)OC[C@H]1C[C@@H](Nc2ncncc2C(=O)c2cc(Cc3ccc(Cl)cc3)cs2)C[C@@H]1O [I-157, {(1R,2S,4R)-4-[(5-{[4-(4-chlorobenzyl)-2-thienyl]carbonyl}pyrimidin-4-yl)amino]-2-hydroxycyclopentyl}methyl sulfamate] |  |  | 92% |  |  |
| NS(=O)(=O)OC[C@H]1C[C@@H](Nc2ncncc2C(=O)c2cc(Cc3cccc(Br)n3)c(Cl)s2)C[C@@H]1O [I-46, [(1R,2S,4R)-4-{[5-({4-[(6-bromopyridin-2-yl)methyl]-5-chloro-2-thienyl}carbonyl)pyrimidin-4-yl]amino}-2-hydroxycyclopentyl]methyl sulfamate] |  |  | 98% |  |  |
| NS(=O)(=O)OC[C@H]1C[C@@H](Nc2ncncc2C(=O)c2cc([C@@H]3OCCc4c(Cl)cccc43)cs2)C[C@@H]1O (single isomer, unassigned) [I-301a, [(1R,2S,4R)-4-{[5-({4-[(1R)-5-chloro-3,4-dihydro-1H-isochromen-1-yl]-2-thienyl}carbonyl)pyrimidin-4-yl]amino}-2-hydroxycyclopentyl]methyl sulfamate or [(1R,2S,4R)-4-{[5-({4-[(1S)-5-chloro-3,4-dihydro-1H-isochromen-1-yl]-2-thienyl}carbonyl)pyrimidin-4-yl]amino}-2-hydroxycyclopentyl]methyl sulfamate] |  |  |  | 40% | 100 to 1000 nM |
| NS(=O)(=O)OC[C@H]1C[C@@H](Nc2ncncc2C(=O)c2cc(Cc3cccc(Cl)c3)c(Cl)o2)C[C@@H]1O [I-72, [(1R,2S,4R)-4-({5-[5-chloro-4-(3-chlorobenzyl)-2-furoyl]pyrimidin-4-yl}amino)-2-hydroxycyclopentyl]methyl sulfamate] |  | < 10 nM | 98% |  |  |
| CN1Cc2ccc(Cl)cc2[C@@H]1c1csc(C(=O)c2cncnc2N[C@@H]2C[C@H](COS(N)(=O)=O)[C@@H](O)C2)c1 (mixture of isomers) [I-265, [(1R,2S,4R)-4-{[5-({4-[(1R)-6-chloro-2-methyl-2,3-dihydro-1H-isoindol-1-yl]-2-thienyl}carbonyl)pyrimidin-4-yl]amino}-2-hydroxycyclopentyl]methyl sulfamate and [(1R,2S,4R)-4-{[5-({4-[(1S)-6-chloro-2-methyl-2,3-dihydro-1H-isoindol-1-yl]-2-thienyl}carbonyl)pyrimidin-4-yl]amino}-2-hydroxycyclopentyl]methyl sulfamate] | 97 | < 10 nM |  |  |  |
| NS(=O)(=O)OC[C@H]1C[C@@H](Nc2ncncc2C(=O)c2cc(COc3ccccc3Cl)cs2)C[C@@H]1O [I-129, [(1R,2S,4R)-4-{[5-({4-[(2-chlorophenoxy)methyl]-2-thienyl}carbonyl)pyrimidin-4-yl]amino}-2-hydroxycyclopentyl]methyl sulfamate] |  | < 10 nM | 95% |  |  |
| CC(C)(C)OC(=O)N1CCc2ccc(Cl)cc2[C@@H]1c1csc(C(=O)c2cncnc2N[C@@H]2C[C@H](COS(N)(=O)=O)[C@@H](O)C2)c1.CC(C)(C)OC(=O)N1CCc2ccc(Cl)cc2[C@H]1c1csc(C(=O)c2cncnc2N[C@@H]2C[C@H](COS(N)(=O)=O)[C@@H](O)C2)c1 (mixture of isomers) [I-334, tert-butyl (1R)-7-chloro-1-(5-{[4-({(1R,3S,4R)-3-hydroxy-4-[(sulfamoyloxy)methyl]cyclopentyl}amino)pyrimidin-5-yl]carbonyl}-3-thienyl)-3,4-dihydroisoquinoline-2(1H)-carboxylate and tert-butyl (1S)-7-chloro-1-(5-{[4-({(1R,3S,4R)-3-hydroxy-4-[(sulfamoyloxy)methyl]cyclopentyl}amino)pyrimidin-5-yl]carbonyl}-3-thienyl)-3,4-dihydroisoquinoline-2(1H)-carboxylate] |  |  |  | 10% | 100 to 1000 nM |
